From patent publication US12187992B2, “Method and device for early cancer screening” (The Regents of the University of California, priority 2020, dated 2025)
“Also recorded” adds a separate entry of the source.

Columns and labels:
Assay type in all cases: cell-based, human
[1] = tested on: strongly adherent MDA-MB231 cells; test: 2D migration assay on collagen gels under microtubule-targeting drug treatment; details: nocodazole 0.2 ug/mL, paclitaxel 0.5 ug/mL, tracked 24 hours on collagen gels
Protocol: (§1) To isolate the weakest and strongest 2% of the MDA-MB231 cell population for migration assays, the seeded plate was subjected to a low shear stress (28 dynes/cm^2) for 3 minutes to isolate WA cells in the flow through from the outlet. The shear stress was then increased to a high shear stress (510 dynes/cm^2) for 2 minutes to eliminate intermediate cell fractions. The remaining steps to isolate SA cells are listed above. The weakest MCF10A and […] cells were isolated using 170 and 130 dynes/cm^2 of shear stress respectively; the strongest were isolated using 1275 and 595 dynes/cm^2 respectively. 2D migration assays on collagen gels: 2.4 mg/mL Type I collagen gels were prepared by mixing collagen (Corning) with PBS, DI water, and 1 M NaOH and adjusted to pH 7.0. Gels were added to a 12-well plate and cured at 37° C. for 30 minutes. The weakest and strongest 2% of the cell population were seeded onto the gels and incubated overnight. The cells were imaged with a Nikon Eclipse Ti-S microscope equipped with a temperature- and CO2-controlled stage. Cells were imaged at 10× in brightfield every 15 minutes for 24 hours. The migration data was analyzed via Fiji. The positions were normalized to the starting point and analyzed via a custom MATLAB script to compute instantaneous speed and cell displacement. […] Cells that interacted with other cells for more than 2 hours were not tracked, as cell-cell interactions artificially slowed cell speed. For MDA-MB231 cell migration under drug treatment, cells were treated with either 0.2 μg/mL nocodazole (Cayman Chemical) or 0.5 μg/mL paclitaxel (LC Laboratories). Cells were imaged the following day for 24 hours and tracked as stated above.

[2] = tested on: weakly adherent MDA-MB231 cells; test: as above; details: nocodazole 0.2 ug/mL, paclitaxel 0.5 ug/mL, tracked 24 hours on collagen gels
Protocol: as §1

[3] = tested on: strongly adherent MDA-MB-231 cells; test: 2D migration assay on step-gradient hydrogels under drug treatment (durotaxis); details: SA mammary cells; LPA 1, 10 μM or DMSO; t=3 and t=24 hours
Text: (§2) A two-step photopolymerization method was used as described previously (Happe et al., 2017) to produce hydrogels with alternating elasticity profiles. Acrylamide concentrations of the prepolymer solutions were modified to obtain elasticities matching that of the tumor and stromal environment of each type of cancer. For breast cancer hydrogels, 3% acrylamide (3.7% for lung, 6.4% for prostate) and 0.4% bis-acrylamide were used for the first prepolymer solution, which was polymerized between a methacrylated 18 mm coverslip and a chlorosilanated glass slide by exposing to ultraviolet light (350 nm) for 5 minutes, using 2-hydroxy-4′-(2-hydroxyethoxy)-2-methylpropiophenone (0.5%) as the photo-initiator. The PA hydrogel was removed from the chlorosilanated glass slide and dehydrated for 1 hour on a hot plate at 30° C. prior to rehydrating with a 2% acrylamide (3.7% for lung, 3.2% for prostate) and 0.4% bis-acrylamide prepolymer solution. The rehydrated gel was again exposed to UV light for 5 min through a high-resolution chrome patterned photomask 200 μm dark stripes and 100 μm clear stripes. The Young's moduli of each region were validated using atomic force microscopy.
(§3) The hydrogels were then placed in a 12-well plate on top of 50 μl of 2 mg/ml of collagen I to adhere the coverslip to the bottom of the well. After the collagen polymerized, the gels were immersed in a solution of sulfosuccinimidyl 6-(4′-azido-2′-nitrophenylamino)hexanoate (0.2 mg/ml, Sulfo-SANPAH; Pierce) dissolved in 4-(2-hydroxyethyl)-1-piperazineethanesulfonic acid buffer (pH 8.4, 50 mM) and exposed to UV light (350 nm) for 10 minutes. After washing several times with PBS, the functionalized surface of the gels was coated with collagen I (150 μg/ml) by incubating overnight at 37° C.
(§4) Weakly and strongly adherent cells were isolated at varying shear stresses using a parallel plate flow chamber (Beri et al., 2020). To ensure sufficient spacing between individual cells, MDA-MB-231 and NCI-H1299 cells were seeded at […] onto a fibronectin (2 μg/cm^2) coated glass plate and incubated overnight. […] For each cell line, PBS free of magnesium and calcium and with 4.5 g/L of dextrose was used to shear cells. Shear stresses used to detach the weakly adherent (WA) population were selected to collect about 20,000 cells at a given flow rate (3 min at 30 dynes/cm^2 for MDA-MB-231, 3 min at 60 dynes/cm^2 for PC-3 and NCI-H1299 cells). The strongly adherent (SA) population was collected after washing away the intermediate population at a higher shear stress (2 min 500 at dynes/cm^2 for MDA-MB-231, 5 min at 300 dynes/cm^2 for NCI-H1299, and 2 min at 750 dynes/cm^2 for PC-3), and detaching the remaining SA population using 0.25% trypsin-EDTA. Media was then pumped though the device to neutralize the trypsin and collect the SA cells. Collected cells were then seeded onto hydrogels and allowed to adhere for […] 2 hours prior to imaging.
(§5) Isolated cells were seeded at ˜1500 cells/well onto step-gradient gels fixed in a 12-well plate and allowed to adhere for no more than 2 hours to ensure a random distribution across the step-gradient at the start of imaging. The cells were imaged over 24 hours using a Nikon Eclipse Ti-S microscope equipped with a temperature and CO2 controller (Pathology Devices Inc., LiveCell). […] Cell trajectories were collected and analyzed using a custom MATLAB script (https://github.com/compactmatterlab/Durotaxis, MathWorks, Natick, MA). […]

[4] = tested on: weakly adherent MDA-MB-231 cells; test: as above; details: WA mammary cells
Text: as §2, §3, §4, §5

Q: With `CC(=O)O[C@H]1C(=O)[C@@]2(C)[C@H]([C@H](OC(=O)c3ccccc3)[C@]3(O)C[C@H](OC(=O)[C@H](O)[C@@H](NC(=O)c4ccccc4)c4ccccc4)C(C)=C1C3(C)C)[C@]1(OC(C)=O)CO[C@@H]1C[C@@H]2O` [paclitaxel] as the molecule, how does the average migration speed [1] read?
A: unaffected; also recorded: no change

Q: And the average migration speed [2]?
A: migration speed reduced to that of the strongly adherent cells; also recorded: significant decrease in migration speed; also recorded: significant decrease in average speed

Q: With `COC(=O)Nc1nc2ccc(C(=O)c3cccs3)cc2[nH]1` [nocodazole] as the molecule, how does the average migration speed [1] read?
A: unaffected; also recorded: no change

Q: And the average migration speed [2]?
A: migration speed reduced to that of the strongly adherent cells; also recorded: significant decrease in migration speed; also recorded: significant decrease in average speed

Q: With “lysophosphatidic acid [lysophophatidic acid]” as the molecule, how does the “durotactic behavior (cell fraction vs hydrogel position), dose dependent response” value [3] read?
A: became less durotactic

Q: How did the “cell speed on soft and stiff substrates” value ([4]; blebbistatin 100 μM vs DMSO, step-gradient hydrogels) turn out when `Cc1ccc2c(c1)C(=O)[C@]1(O)CCN(c3ccc([N+](=O)[O-])cc3)C1=N2` [blebbistatin, (S)-4′-nitro-Blebbistatin] was run?
A: decreased

Q: And the “durotactic behavior (cell fraction vs hydrogel position), dose dependent response” value ([4]; blebbistatin 1, 10, 100 μM or DMSO, t=3 and t=27 hours)?
A: became more durotactic

Q: And the antidurotactic migration ([4]; blebbistatin-treated vs DMSO)?
A: much less likely

Q: What about the “likelihood to migrate from the soft substrate into the stiff substrate (durotactic migration)” value ([4]; blebbistatin-treated vs DMSO) of the same molecule?
A: 2 fold
